Structures can show the parent of a compound that is named as a salt. Where two headings read alike, the source gives them in different places.
Biological target: c-fms (Homo sapiens, UniProt P07333)
Test: autophosphorylation, fluorescence polarization competition immunoassay for c-fms inhibition
Format: biochemical
Conditions: read-out: c-fins IC50
Procedure: The assay buffer used was 100 mM 4-(2-hydroxyethyl)piperazine 1-ethanesulfonic acid (HEPES), pH 7.5, 1 mM 1,4-dithio-DL-threitol (DTT), 0.01% (v/v) Tween-20. Compounds were diluted in assay buffer containing 4% dimethylsulfoxide (DMSO) just prior to the assay. […] The kinase reaction was initiated by adding 2 μL of 5 mM ATP (Sigma) in assay buffer. The final concentrations in the assay were 10 nM c-fms, 1 mM ATP, 5 mM MgCl2, 2% DMSO. Control reactions were ran in each plate: in positive and negative control wells, assay buffer (made 4% in DMSO) was substituted for the compound; in addition, positive control wells received 1.2 μL of 50 mM ethylenediaminetetraaceticacid (EDTA).
The plates were incubated at room temperature for 45 min. At the end of the incubation, the reaction was quenched with 1.2 μL of 50 mM EDTA (EDTA was not added to the positive control wells at this point; see above). Following a 5-min incubation, each well received 10 μL of a 1:1:3 mixture of anti-phosphotyrosine antibody, 10X, PTK green tracer, 10X (vortexed), FP dilution buffer, respectively (all from PanVera, cat. # P2837). The plate was covered, incubated for 30 min at room temperature and the fluorescence polarization was read on the Analyst. […] The reported IC50 values are averages of three independent measurements.

[1] = 10 nM c-fms, 1 mM ATP, 5 mM MgCl2, 2% DMSO, 45 min at room temperature, averages of three independent measurements

Sequence of c-fms (P07333 20-972): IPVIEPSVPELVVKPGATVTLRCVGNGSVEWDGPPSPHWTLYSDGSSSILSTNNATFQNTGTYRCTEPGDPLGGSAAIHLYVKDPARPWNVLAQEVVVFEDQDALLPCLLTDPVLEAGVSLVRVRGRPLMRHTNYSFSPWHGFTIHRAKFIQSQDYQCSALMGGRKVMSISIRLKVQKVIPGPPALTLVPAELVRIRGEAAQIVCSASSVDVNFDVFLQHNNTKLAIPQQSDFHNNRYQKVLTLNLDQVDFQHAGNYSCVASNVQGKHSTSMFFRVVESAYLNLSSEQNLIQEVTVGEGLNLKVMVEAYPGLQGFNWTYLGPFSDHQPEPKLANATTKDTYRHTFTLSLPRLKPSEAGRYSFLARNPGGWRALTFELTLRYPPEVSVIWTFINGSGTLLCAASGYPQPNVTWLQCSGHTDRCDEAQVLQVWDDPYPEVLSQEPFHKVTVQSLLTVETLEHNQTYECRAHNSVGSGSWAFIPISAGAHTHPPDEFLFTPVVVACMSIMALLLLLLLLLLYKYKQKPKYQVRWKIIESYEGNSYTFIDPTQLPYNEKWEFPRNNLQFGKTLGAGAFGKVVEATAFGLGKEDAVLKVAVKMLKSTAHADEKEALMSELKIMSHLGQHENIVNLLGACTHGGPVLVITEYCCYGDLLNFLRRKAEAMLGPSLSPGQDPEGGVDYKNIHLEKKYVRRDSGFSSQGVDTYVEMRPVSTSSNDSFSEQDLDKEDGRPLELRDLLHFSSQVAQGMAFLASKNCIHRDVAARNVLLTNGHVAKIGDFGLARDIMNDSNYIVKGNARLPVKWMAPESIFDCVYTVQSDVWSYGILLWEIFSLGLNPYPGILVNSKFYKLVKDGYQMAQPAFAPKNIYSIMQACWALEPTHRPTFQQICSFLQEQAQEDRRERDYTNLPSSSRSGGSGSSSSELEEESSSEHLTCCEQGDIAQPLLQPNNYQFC

SMILES | IC50 [nM] | IC50 [1] [nM]
Cc1ccsc1-c1cc(N2CCN(C)CC2)ccc1NC(=O)c1ccc(C#N)o1 [Example 4, 5-Cyano-furan-2-carboxylic acid [4-(4-methyl-piperazin-1-yl)-2-(3-methyl-thiophen-2-yl)-phenyl]-amide] | 470 | –
Cc1cscc1-c1cc(N2CCN(C)CC2)ccc1NC(=O)c1ccc(C#N)o1 [Example 5, 5-Cyano-furan-2-carboxylic acid [4-(4-methyl-piperazin-1-yl)-2-(4-methyl-thiophen-3-yl)-phenyl]-amide] | – | 950
Cc1ccccc1-c1cc(N2CCN(C)CC2)ccc1NC(=O)c1ccc(C#N)o1 [Example 9, 5-Cyano-furan-2-carboxylic acid [2 ′-methyl-5-(4-methyl-piperazin-1-yl)-biphenyl-2-yl]-amide] | – | 630
CN1CCN(c2ccc(NC(=O)c3ccc(C#N)o3)c(-c3ccccc3F)c2)CC1 [Example 10, 5-Cyano-furan-2-carboxylic acid [2′-fluoro-5-(4-methyl-piperazin-1-yl)-biphenyl-2-yl]-amide] | – | 900
CN1CCN(c2ccc(NC(=O)c3ccc(C#N)o3)c(C3=CCOCC3)c2)CC1 [Example 12] | – | 60
N#Cc1c[nH]c(C(=O)Nc2ccc(C3CCNCC3)cc2C2=CCCCC2)c1 [Example 13, 4-Cyano-1H-pyrrole-2-carboxylic acid (2-cyclohex-1-enyl-4-piperidin-4-yl-phenyl)-amide trifluoroacetic acid salt] | – | 12
CC1CC=C(c2cc(C3CCN(Cc4ccccn4)CC3)ccc2NC(=O)c2nc(C#N)c[nH]2)CC1 (stereo not shown) [Example 22, 4-Cyano-1H-imidazole-2-carboxylic acid [2-(4-methyl-cyclohex-1-enyl)-4-(1-pyridin-2-ylmethyl-piperidin-4-yl)-phenyl]-amide trifluoroacetic acid salt] | – | 1.4
Cn1ccnc1CN1CCC(c2ccc(NC(=O)c3nc(C#N)c[nH]3)c(C3=CCCC3)c2)CC1 [Example 23, 4-Cyano-1H-imidazole-2-carboxylic acid {2-cyclopent-1-enyl-4-[1-(1-methyl-1H-imidazol-2-ylmethyl)-piperidin-4-yl]-phenyl}-amide trifluoroacetic acid salt] | – | 6.6
N#Cc1c[nH]c(C(=O)Nc2ccc(C3CCNCC3)cc2C2=CCS(=O)(=O)CC2)n1 [Example 36, 4-Cyano-1H-imidazole-2-carboxylic acid [2-(1,1-dioxo-1,2,3,6-tetrahydro-1λ^6-thiopyran-4-yl)-4-piperidin-4-yl-phenyl]-amide trifluoroacetic acid salt] | – | 60
CC(=O)N1CCC(c2ccc(NC(=O)c3nc(C#N)c[nH]3)c(C3=CCS(=O)(=O)CC3)c2)CC1 [Example 37, 4-Cyano-1H-imidazole-2-carboxylic acid [4-(1-acetyl-piperidin-4-yl)-2-(1,1-dioxo-1,2,3,6-tetrahydro-1λ^6-thiopyran-4-yl)-phenyl]-amide] | – | 60
O=C(Nc1ccc(C2CCNCC2)cc1C1=CCCCC1)c1nnc[nH]1 [Example 49, 4H-[1,2,4]-triazole-3-carboxylic acid (2-cyclohex-1-enyl-4-piperidin-4-yl-phenyl)-amide bis trifluoroacetic acid salt] | – | 60
CC1(C)CC=C(c2nc(C3CCNCC3)ccc2NC(=O)c2nc(C#N)c[nH]2)CC1 [Example 54, 4-Cyano-1H-imidazole-2-carboxylic acid [6-(4,4-dimethyl-cyclohex-1-enyl)-1′,2′,3′,4′,5′,6′-hexahydro-[2,4′]bipyridinyl-5-yl]-amide trifluoroacetic acid salt] | – | 0.8
CN(C)CC(=O)N1CCC(c2ccc(NC(=O)c3nc(C#N)c[nH]3)c(C3=CCC(C)(C)CC3)n2)CC1 [Example 55, 4-Cyano-1H-imidazole-2-carboxylic acid [1′-(2-dimethylamino-acetyl)-6-(4,4-dimethyl-cyclohex-1-enyl)-1′,2′,3′,4′,5′,6′-hexahydro-[2,4′]bipyridinyl-5-yl]-amide trifluoroacetic acid salt] | – | 0.7
CC1(C)CC=C(c2nc(C3CCN(CCS(C)(=O)=O)CC3)ccc2NC(=O)c2nc(C#N)c[nH]2)CC1 [Example 56, 4-Cyano-1H-imidazole-2-carboxylic acid [6-(4,4-dimethyl-cyclohex-1-enyl)-1′-(2-methanesulfonyl-ethyl)-1′,2′,3′,4′,5′,6′-hexhydro-[2,4′]bipyridinyl-5-yl]-amide trifluoroacetic acid salt] | – | 1
CS(=O)(=O)CCN1CCC(c2ccc(NC(=O)c3nc(C#N)c[nH]3)c(C3=CCCCC3)n2)CC1 [Example 58, 5-Cyano-1H-imidazole-2-carboxylic acid [6-cyclohex-1-enyl-1′-(2-methanesulfonyl-ethyl)-1′,2′,3′,4′,5′,6′-hexahydro-[2,4′]bipyridinyl-5-yl]-amide] | – | 7

More lines, now with the values ahead:

IC50 [nM] | IC50 [1] [nM] | SMILES
– | 28 | CC(=O)N1CCC(c2ccc(NC(=O)c3cc(C#N)c[nH]3)c(C3=CCCCC3)c2)CC1 [Example 15, 4-Cyano-1H-pyrrole-2-carboxylic acid [4-(1-acetyl-piperidin-4-yl)-2-cyclohex-1-enyl-phenyl]-amide]
– | 2.9 | N#Cc1c[nH]c(C(=O)Nc2ccc(C3CCS(=O)(=O)CC3)cc2C2=CCCCC2)n1 [Example 35, 4-Cyano-1H-imidazole-2-carboxylic acid [2-cyclohex-1-enyl-4-(1,1-dioxo-hexahydro-1λ^6-thiopyran-4-yl)-phenyl]-amide]
– | 1.4 | CNCC(=O)N1CCC(c2ccc(NC(=O)c3nc(C#N)c[nH]3)c(C3=CCCCC3)c2)CC1 [Example 38b, 4-Cyano-1H-imidazole-2-carboxylic acid {2-cyclohex-1-enyl-4-[1-(2-methylamino-acetyl)-piperidin-4-yl]-phenyl}-amide]
– | 60 | O=C(Nc1ccc(C2CCNCC2)cc1C1=CCCCC1)c1nnc(Cl)[nH]1 [Example 50, 5-Chloro-4H-[1,2,4]-triazole-3-carboxylic acid (2-cyclohex-1-enyl-4-piperidin-4-yl-phenyl)-amide trifluoroacetic acid salt]
– | 0.2 | C[C@@H]1CC(c2ccc(NC(=O)c3ncc(C#N)[nH]3)c(C3=CCCCC3)c2)C[C@H](C)N1 (stereo partly drawn) [Example 51a, 5-Cyano-1H-imidazole-2-carboxylic acid [2-cyclohex-1-enyl-4-(cis-2,6-dimethyl-piperidin-4-yl)-phenyl]-amide bis trifluoroacetic acid salt]
– | 0.4 | C[C@H]1CC(c2ccc(NC(=O)c3ncc(C#N)[nH]3)c(C3=CCCCC3)c2)C[C@H](C)N1 (stereo partly drawn) [Example 51b, 5-cyano-1H-imidazole-2-carboxylic acid [2-cyclohex-1-enyl-4-(trans-2,6-dimethyl-piperidin-4-yl)-phenyl]-amide bis trifluoroacetic acid salt]
– | 5.3 | CON1CCC(c2ccc(NC(=O)c3ncc(C#N)[nH]3)c(C3=CCCCC3)c2)CC1 [Example 53, 5-Cyano-1H-imidazole-2-carboxylic acid [2-cyclohex-1-enyl-4-(1-methoxy-piperidin-4-yl)-phenyl]-amide trifluoroacetic acid salt]
